This is an account of results in patent US12403141B2, “Deuterated MK2 pathway inhibitors and methods of using the same” (ACLARIS THERAPEUTICS, INC., priority 2019, dated 2025).

As a reminder, the clearance is the rate of elimination divided by the concentration.

Where two headings read alike, the source gives them in different places.

Data set [1] can be described thus: IV pharmacokinetics in male SD rats. To be noted: for clearance: male, Sprague-Dawley, rat, plasma, iv. The format is in vivo, rat. Here is the method:
Pharmacokinetic parameters of some examples were evaluated in male Sprague Dawley (SD) rats after intravenous (IV) and oral (PO) dosing. Male SD rats (5-6 weeks of age) were fasted for 12 hours before administration of the compound of interest. Animals were allowed access to food 2 h after dosing and water was given ad libitum. Except for the compound of Example 13, pharmacokinetic experiments comparing deuterium containing and non-deuterium containing compounds were performed at the same time using the same cohort of animals. The pharmacokinetic properties of the compound of Example 13 were evaluated separately and compared to previously generated data.
For IV dosing, a 0.5 mg/mL solution of the test compound was prepared in a vehicle consisting of 5% DMSO, 5% Cremophore, 90% normal saline. For a 1 mpk dose, 2 mL/kg of this dosing vehicle was administered to each rat by bolus injection into the tail vein. For lower doses, the dosing solution was diluted with the appropriate amount of vehicle. Example 3 was evaluated at 3 mpk by preparing a 1.5 mg/mL solution in the same vehicle and dosing 2 mL/kg. Blood samples from each animal was collected in di-sodium EDTA coated containers at 0.12, 0.25, 0.5, 1.0, 2.0, 4.0, 8.0 and 24.0 hours after dosing. Plasma was separated from the blood samples within 15 minutes following collection and stored at −20±5° C. before analysis.
A standard curve was generated from a stock solution of the test compound with known concentration in methanol. Working solutions having known concentrations ranging from 5-20,000 ng/mL were prepared from the stock solution by dilution with methanol:water (80:20 v/v). 5 uL of the working solutions were added to 45 uL of blank rat plasma to provide standard samples for analysis.
Plasma samples collected from rats after dosing were allowed to reach room temperature. A 50 uL aliquot of each plasma sample and the standard curve plasma samples were treated with 200 uL of acetonitrile containing an internal standard (100 ng/mL; warfarin/diclofenac) and mixed well. The samples were vortexed for 5 minutes followed by centrifugation for 5 minutes at 14000 rpm at 4° C. The supernatant (10 uL) was analyzed by LC-MS/MS (LC: Shimadzu SIL HTc, MS: MDS Sciex API-5500 & 4000 using 75%/25% acetonitrile/0.2% formic acid in Milli-Q water, flow rate: 1.0 mL/min, run time 3 minutes, Atlantis dC18(50×4.6 mm, 3 um; Waters®)) and the concentrations of the test compound in the plasma samples collected from rats at each time point were determined by comparison to the standard curve samples.
Pharmacokinetic parameters were calculated from the plasma concentrations at each time point using Phoenix WinNonlin (Version 7.0) by the non-compartmental analysis (NCA) method. Clearance values are reported as mL/min/kg. AUC values are reported as ng·h/mL.

The test system of the next data set is monkey hepatocytes. The data set is described as follows: In vitro metabolite profile in monkey hepatocytes. The data set is classed as in vitro ADME. More on the design: key to UV % at 280-290 nm or observed (+ or --), metabolite M387 (O-dealkylation) / UV % at 280-290 nm or observed (+ or --), metabolite M532b (Hydroxylation) / UV % at 280-290 nm or observed (+ or --), metabolite M532c (Hydroxylation) / UV % at 280-290 nm or observed (+ or --), metabolite M532d (Hydroxylation) / UV % at 280-290 nm or observed (+ or --), metabolite M563 (O-dealkylation + Glucuronidation) / UV % at 280-290 nm or observed (+ or --), metabolite M530b (Hydroxylation) / UV % at 280-290 nm or observed (+ or --), metabolite M530c (Hydroxylation) / UV % at 280-290 nm or observed (+ or --), metabolite M530d (Hydroxylation): +: only detected by MS; --: not detected or trace. The note with it: 10 μM; for UV % at 280-290 nm, Parent-T0 min: T0 min (normalized as 100%). The protocol:
(§1) Briefly, each test compound (final concentration of 10 μM containing 0.1% DMSO) was incubated with rat, dog, minipig, monkey, or human hepatocytes (final viable cell density of 1×10^6 cells/mL) at 37° C. with 5% CO2 in HI hepatocyte maintenance media (BIOIVT; Catalog #Z99009) for 120 minutes. Reactions were initiated by combining 200 μL of pre-warmed 2× dosing solution containing 20 μM test compound and 0.2% DMSO in HI maintenance media with 200 μL of pre-warmed hepatocyte solution containing 2×10^6 cells/mL in HI maintenance media. Samples were taken at 0 minutes (T0) and 120 minutes (T120) by quenching the reaction with 1200 μL acetonitrile. After quenching, the samples were sonicated for 2 minutes and then centrifuged at 1400 rpm for 5 minutes. A 1400-μL aliquot of the supernatant was evaporated under a stream of N2 until dry. The dried extracts were then reconstituted with 200 μL acetonitrile: H2O (1:3 v/v), vortexed for 2 minutes and centrifuged at 14000 rpm for 5 minutes. A 2-μL aliquot of the supernatant was injected onto a Xevo UPLC-UV-G2-S Q-Tof system (Waters®) with positive-ion electrospray ionization for analysis. Chromatographic separation was achieved on an Acquity UPLC®BEH C18 column (2.1×50 mm, 1.7 μm; Waters®) by gradient elution using varying proportions of mobile phase A (H2O with 0.1% formic acid) and mobile phase B (acetonitrile with 0.1% formic acid) at a constant flow rate of 400 μL/minute over a total run time of 10 minutes. LC-UV-MS extract ion chromatograms (EIC) of the T120 samples were compared to the T0 samples to identify the major putative metabolites which were named as Mm/z.

Another data set relates to human hepatocytes. In words: In vitro metabolite profile in human hepatocytes. The data set is classed as in vitro ADME. The note with it: 10 μM; for UV % at 280-290 nm, Parent-T0 min: T0 min (normalized as 100%). The arrangement: key to UV % at 280-290 nm or observed (+ or --), metabolite M387 (O-dealkylation) / UV % at 280-290 nm or observed (+ or --), metabolite M532b (Hydroxylation) / UV % at 280-290 nm or observed (+ or --), metabolite M532e (Hydroxylation) / UV % at 280-290 nm or observed (+ or --), metabolite M563 (O-dealkylation + Glucuronidation) / UV % at 280-290 nm or observed (+ or --), metabolite M530b (Hydroxylation) / UV % at 280-290 nm or observed (+ or --), metabolite M530e (Hydroxylation): +: only detected by MS; --: not detected or trace. Here is the method: as §1

The mark [2] stands for this setting: 120 min, relative to parent at T0.

In the case of `[2H]C([2H])(Oc1cc(C)n(-c2cc(-c3ccnc(C(C)(C)O)n3)ncc2C)c(=O)c1Cl)c1ncc(F)cc1F` (single isomer, unassigned) [Example 1-D2, (P)-3-Chloro-4-((3,5-difluoropyridin-2-yl)methoxy-d2)-2′-(2-(2-hydroxypropan-2-yl)pyrimidin-4-yl)-5′,6-dimethyl-2H-[1,4′-bipyridin]-2-one], the “effect of deuterium substitution on clearance” value in data set [1] (IV, versus non-deuterated comparator Example 1-H2) is “clear and consistent reduction in clearance”. The clearance in data set [1] (0.1 mg/kg, IV 0.1 mpk, ± one standard deviation, read-out: IV clearance 0.1 mpk) amounted to 16 ± 4 mL/min/kg. In addition, the clearance in data set [1] (0.3 mg/kg, IV 0.3 mpk, ± one standard deviation, read-out: IV clearance 0.3 mpk) was determined as 12 ± 3 mL/min/kg. In addition, the clearance in data set [1] (1 mg/kg, IV 1 mpk, ± one standard deviation, read-out: IV clearance 1 mpk) came out at 9.5 mL/min/kg. In addition, in the data set on monkey hepatocytes (setting [2]), the “UV % at 280-290 nm or observed (+ or --), metabolite M387 (O-dealkylation)” value (“UV % … (O-dealkylation)” for short) is reported as “+”; the “UV % at 280-290 nm or observed (+ or --), metabolite M532b (Hydroxylation)” value is recorded as “--”; the “UV % at 280-290 nm or observed (+ or --), metabolite M532c (Hydroxylation)” value is “+”; the “UV % at 280-290 nm or observed (+ or --), metabolite M532d (Hydroxylation)” value was “+”. For the same molecule, the “UV % at 280-290 nm, Parent-T120 min” value in the data set on monkey hepatocytes (setting [2]) is listed as 96.6%. Besides, the “UV % at 280-290 nm, Parent-T0 min” value in the data set with monkey hepatocytes amounted to 100.0%. In the data set on human hepatocytes (setting [2]), the “UV % … (O-dealkylation)” value is given as “+”; the “UV % at 280-290 nm or observed (+ or --), metabolite M532b (Hydroxylation)” value is recorded as “+”; the “UV % at 280-290 nm or observed (+ or --), metabolite M532e (Hydroxylation)” value is given as “+”; the “UV % at 280-290 nm, Parent-T120 min” value came out at 88.2%. Also, in the data set with human hepatocytes, the “UV % at 280-290 nm, Parent-T0 min” value amounted to 100.0%.

For the molecule `Cc1cnc(-c2ccnc(C(C)(C)O)n2)cc1-n1c(C)cc(OCc2ncc(F)cc2F)c(Cl)c1=O` (atropisomer, axis not shown; (P)) [Example 1-H2, (P)-3-chloro-4-((3,5-difluoropyridin-2-yl)methoxy)-2′-(2-(2-hydroxypropan-2-yl)pyrimidin-4-yl)-5′,6-dimethyl-2H-[1,4′-bipyridin]-2-one], the “IV clearance 0.1 mpk” value in data set [1] (IV 0.1 mpk, ± one standard deviation) was determined as 24 ± 4 mL/min/kg. The “IV clearance 0.3 mpk” value in data set [1] (IV 0.3 mpk, ± one standard deviation) stood at 23 ± 7 mL/min/kg. Further, the “IV clearance 1 mpk” value in data set [1] (IV 1 mpk, ± one standard deviation) came out at 24 ± 5 mL/min/kg. Besides, in the data set on monkey hepatocytes (setting [2]), the “UV % … (O-dealkylation)” value came out at 4.8%; the “UV % at 280-290 nm or observed (+ or --), metabolite M530b (Hydroxylation)” value is recorded as “--”; the “UV % at 280-290 nm or observed (+ or --), metabolite M530c (Hydroxylation)” value is recorded as “+”; the “UV % at 280-290 nm or observed (+ or --), metabolite M530e (Hydroxylation)” value came to 1.5%. Moreover, in the data set on monkey hepatocytes (setting [2]), the “UV % at 280-290 nm or observed (+ or --), metabolite M563 (O-dealkylation + Glucuronidation)” value was “+”; the “UV % at 280-290 nm or observed (+ or --), metabolite M530d (Hydroxylation)” value is listed as “--”; the “UV % at 280-290 nm, Parent-T120 min” value is 85.7%. Moreover, the “UV % at 280-290 nm, Parent-T0 min” value with monkey hepatocytes amounted to 100.0%. Further, in the data set on human hepatocytes (setting [2]), the “UV % … (O-dealkylation)” value stood at 3.5%; the “UV % at 280-290 nm or observed (+ or --), metabolite M530b (Hydroxylation)” value is recorded as “+”; the “UV % at 280-290 nm or observed (+ or --), metabolite M530c (Hydroxylation)” value is given as 1.3%; the “UV % at 280-290 nm or observed (+ or --), metabolite M530e (Hydroxylation)” value is on record as “+”. Moreover, in the data set with human hepatocytes (setting [2]), the “UV % at 280-290 nm or observed (+ or --), metabolite M563 (O-dealkylation + Glucuronidation)” value is “--”; the “UV % at 280-290 nm or observed (+ or --), metabolite M530d (Hydroxylation)” value turned out to be 1.5%; the “UV % at 280-290 nm, Parent-T120 min” value was 84.8%. Also, the “UV % at 280-290 nm, Parent-T0 min” value in the data set on human hepatocytes was found to be 100.0%.
